The test system of series [1] is TNF-α and IL-12 expression. Particulars: cell line 3774, no activator, inhibitor at head concentration: Bafilomycin 250 nM, Chloroquine 2.5 μg/ml, Monensin 10 μM, cited from earlier work; for TNF-α, activator: Medium (inhibitor alone): NAC 50 mM, TPCK 50 μM, Gliotoxin 0.1 μg/ml, Bisgliotoxin 0.1 μg/ml, medium alone 37; for IL-12, activator: Medium (inhibitor alone): medium alone 147.

The subject of another series is NK LU. Particulars: PBMC, phosphorothioate ODN, cited from earlier work.
A further series deals with Murine IL-6 secretion. Particulars: cited from earlier work.
For the next series, the system named is complementary RNA. The series is described as follows: Thermal denaturation experiment (Tm) of DNA strand with complementary RNA (Example 49). Particulars: duplex with complementary RNA, equimolar 0.5 μM in 1×PBS; first derivative of 254 nm absorbance curve. The format is binding. The method, then: Each DNA strand was mixed with complementary RNA in equimolar concentration of 0.5 μM in 1×PBS. Total 2.5 mL solution was prepared for each duplex and the mixture was heated at 90° C. for 2 min and was allowed to cool down over the course of several hours. The mixtures were then stored at 4° C. for 2 hrs. Absorbance at 254 nm was recorded at an interval of 0.5 min starting the temperature gradient from 15° C. to 90° C. with rise of 0.5° C./minute, using a Perkin Elmer UV-spectrophotometer equipped with a Peltier unit. The 254 nm absorbance was plotted against the temperature and the Tm values were calculated from the respective first derivative of each curve.

Series [2] deals with Apolipoprotein B (Apo B) (NM_000384). Kind of series: Apo B gene expression in Hep3B cells after Lipofectamine 2000 transfection, real-time PCR SYBR green (Example 50). The format is cell-based, Homo Sapiens. Particulars: for IC50: Apo B mRNA, Hep3B cells. The method, then: After checking OD all oligonucleotide candidate molecules were diluted to a starting concentration of 20 μM. Multidose forward transfection experiment was setup in 96-well plates using Hep3B cells (ATCC®, Cat. HB-8064™) using Lipofectamine 2000 (Life Technologies, Cat. 11668-019) transfection reagent.
2×10^4 Hep3B cells per well were seeded and incubated for 24 hours at 37° C. in a CO2 incubator in 100 μl of antibiotic free MEM medium (Life Technologies, Cat. 11095098) containing 10% FBS and 1% Glutamax I (Life Technologies, Cat. 35050061). Twelve dilutions were setup in nuclease free water (Table E-16).
For each well, 0.5 μL of Lipofectamine 2000 were mixed with 9.5 μL of Opti MEM I reduced serum medium (Life Technologies, Cat. 31985062) and incubated for 5 minutes. Following incubation, 10 μL of each of the candidates at the reported concentrations was mixed with the diluted Lipofectamine 2000 by gentle pipetting. The mixture was then incubated for 20 minutes at room temperature to allow for complex formation. During this time the cell growth medium was replaced with 80 μL of fresh antibiotic free MEM as previously described. 20 μL of lipid-oligo complex was gently mixed into each well bringing the total volume to 100 μL. The cells were then incubated for 24 hours at 37° C. in a CO2 incubator.
After 24 hour incubation the cell growth medium was removed and RNA was extracted using a Dynabeads mRNA Direct kit (Life Technologies, Cat. 61012) per the instructions provided in the kit manual without modifications. This magnetic Oligo (dT)^25 bead system allows for cost-effective and robust high-throughput poly (A) RNA extraction circumventing DNAse treatment. RNA was eluted in nuclease-free water and stored at −80° C.
10 μL of RNA was used in a 20 μL cDNA synthesis reaction using a High Capacity cDNA Reverse Transcription Kit (Life Technologies, Cat. 4374967) using the kit protocol with RNAse Inhibitor. The reverse transcription was performed in a 96-well format on a C1000 Touch thermal cycler (Biorad, Cat. 185-1196EDU).
Gene expression was measured by quantitative PCR using a LightCycler® 480 SYBR Green I Master (Roche, Cat. 04707516001) on LightCycler 480 Real-Time PCR instrument. Primers for the Homo Sapiens sequences of the target Apolipoprotein B (Apo B) (NM_000384) and endogenous control Glyceralydhyde-3-phosphate dehydrogenase (GAPDH) (NM_002046) were designed and ordered from IDT (Table E-17).
Measurement of the target and endogenous control was performed in separate wells using material from the same cDNA template. SYBR green assay PCR conditions were setup as described in the SYBR Green I Master protocol (Table E-18).
The data is a result of 3 biological replicates. All samples were compared to Naïve untransfected control. The following results were observed when evaluating gene expression by real-time PCR using SYBR green (Table E-19, FIG. 5).
A general note: Quantitative PCR measures a nucleic acid by following its amplification.

The next series relates to Mouse B Cells. Particulars: mean and std. dev. of at least 3 experiments, compared to wells with no added ODN, cited from earlier work.
Setting [3] is: expt. 1 (one donor), US 6,214,806 Table 5.
Setting [4] is: expt. 1, cells alone 0.00, US 6,239,116 Table 11.
Setting [5] is: T cell depleted spleen cells from DBA/2 mice, phosphodiester O-ODN 20 μM, 24 hr, mean ± SD of triplicates.
Where [6] appears, read: 24 hours after transfection, read-out: IC50 (nM) (rounded up to single digit).
Where [7] appears, read: Complete IC50 data evaluated by SYBR green, 24 hours, 3 biological replicates, read-out: IC50.

Where two headings read alike, the source gives them in different places. Strand notation (5' to 3'): a small letter for the sugar, then the base; units joined by * are phosphorothioate-linked, units joined directly phosphodiester-linked; [ ] holds rarer units or linkages, { } end groups; capitals alone tell only the bases. [Rp] = phosphorothioate linkage, Rp; [Sp] = phosphorothioate linkage, Sp; e = 2'-O-(2-methoxyethyl) (MOE); [5mC] = 5-methylcytosine; d = 2'-deoxy (DNA)

Usually IC50 stands for the concentration that inhibits the measured activity by half.

In the case of Bafilomycin, in series [1], the “TNF-α, activator: Medium (inhibitor alone)” value (“TNF-α … (inhibitor alone)” below) is 46 pg/mL and the “IL-12, activator: Medium (inhibitor alone)” value was 102 pg/mL.

Turning to “1991 (DNA dT*dC*dC*dA*dT*dG*dC*dG*dT*dT*dG*dC*dG*dT*dT*dG*dC*dG*dT*dT) [Oligonucleotide 1991]”, the “NK LU, expt. 1” value with NK LU (setting [3]) and with NK LU (setting [4]) was 0.89 LU in each case.

In the case of “5b (DNA ATGGAAGGTCCAACGTTCTC; chemistry not given here) [Oligonucleotide 5b]”, the “IL-6” value in the series with Murine IL-6 secretion (setting [5]) and with Murine IL-6 secretion (murine IL-6 secretion) was 1124.5 ± 126.2 pg/mL each time.

For “19792 (DNA TCCATGTCGTTCCTGTCGTT; phosphorothioate, Z modified cytosine, chemistry not fully specified) [Oligonucleotide 19792]”, the “NK LU, expt. 1” value in the series with NK LU (setting [3]) is recorded as 1.32 LU.

Turning to `Cc1ccc(S(=O)(=O)N[C@@H](Cc2ccccc2)C(=O)CCl)cc1` [TPCK], the “TNF-α … (inhibitor alone)” value in series [1] is 24 pg/mL.

“5e (DNA ATCGACTCTCGAGCCTTCTC; Z modified cytosine, further chemistry not given here) [Oligonucleotide 5e]”: the “IL-6” value in the series on Murine IL-6 secretion (setting [5]) and in the series with Murine IL-6 secretion (murine IL-6 secretion) was 851.1 ± 114.4 pg/mL in each case.

Regarding “5d (DNA ATGGAAGGTCCAGTGTTCTC; chemistry not given here) [Oligonucleotide 5d]”, the “IL-6” value in the series with Murine IL-6 secretion (setting [5]) and in the series on Murine IL-6 secretion (murine IL-6 secretion) was not above 10 pg/mL each time.

As for `CC[C@@]1([C@@H]2O[C@@H]([C@H]3O[C@@](O)(CO)[C@H](C)C[C@@H]3C)C[C@@H]2C)CC[C@H]([C@]2(C)CC[C@]3(C[C@H](O)[C@@H](C)[C@@H]([C@@H](C)[C@@H](OC)[C@H](C)C(=O)O)O3)O2)O1` [Monensin], in series [1], the “TNF-α … (inhibitor alone)” value is 22 pg/mL and the “IL-12, activator: Medium (inhibitor alone)” value was 73 pg/mL.

For the compound “(Rp, Rp, Rp, Rp, Rp, Sp, Sp, Sp, Sp, Sp, Sp, Sp, Sp, Sp, Rp, Rp, Rp, Rp, Rp)-d[GsCsCsTsCsAsGsTsCsTsGsCsTsTsCsGsCsAsCsC] (DNA GCCTCAGTCTGCTTCGCACC; DNA, linkages [Rp]5 [Sp]9 [Rp]5 (s phosphorothioate, o phosphodiester), methylation of C not given here) [Oligonucleotide 103]”, the “Tm (° C.) ± 0.5” value in the series with complementary RNA worked out at 63.4 °C. The IC50 in series [2] (setting [6]) was 6 nM; in series [2] (setting [7]) it was 5.73 nM. The “Stimulation Index, 3H Uridine” value in the series with Mouse B Cells (US 6,239,116 Table 1) and with Mouse B Cells was 6.1 ± 1.4 throughout. Also, in the series on Mouse B Cells (US 6,239,116 Table 1), the “Stimulation Index, IgM Production” value was 19.2 ± 5.2.

As to `CC(=O)N[C@@H](CS)C(=O)O` [NAC], the “TNF-α … (inhibitor alone)” value in series [1] was 10 pg/mL.

Consider “(Sp, Sp, Sp, Rp, Rp, Rp, Rp, Rp, Rp, Rp, Rp, Rp, Rp, Rp, Rp, Rp, Sp, S, Sp)d[GsCsCsTsCsAsGsTsCsTsGsCsTsTsCsGsCsAsCsC] (DNA GCCTCAGTCTGCTTCGCACC; DNA, linkages [Sp]3 [Rp]13 [Sp]3 (s phosphorothioate, o phosphodiester), methylation of C not given here) [Oligonucleotide 109]”, for which the “Tm (° C.) ± 0.5” value in the series with complementary RNA amounted to 65.8 °C. In series [2] (setting [6]), the IC50 turned out to be 2 nM. For the same compound, the IC50 in series [2] (setting [7]) turned out to be 1.72 nM. In addition, in series [2] (from Table E-19 IC50, Hep3B), the “activity compared to Mipomersen (120)” value is “more active” and the “potency compared to the corresponding stereorandom oligonucleotide mixture (Oligonucleotide 118)” value is listed as “more potent”.

In the case of “(Rp, Sp, Rp, Sp, Rp, Sp, Rp, Sp, Rp, Sp, Rp, Sp, Rp, Sp, Rp, Sp, Rp, Sp, Rp)-d[GsCsCsTsCsAsGsTsCsTsGsCsTsTsCsGsCsAsCsC] (DNA GCCTCAGTCTGCTTCGCACC; DNA, linkages [Rp][Sp][Rp][Sp][Rp][Sp][Rp][Sp][Rp][Sp][Rp][Sp][Rp][Sp][Rp][Sp][Rp][Sp][Rp] (s phosphorothioate, o phosphodiester), methylation of C not given here) [Oligonucleotide 107]”, the “Tm (° C.) ± 0.5” value in the series on complementary RNA was 64.5 °C. In addition, the IC50 in series [2] (setting [6]) was 4 nM; in series [2] (setting [7]), approximately 4.18 nM. In addition, the “activity compared to Mipomersen (120)” value in series [2] (from Table E-19 IC50, Hep3B) is reported as “more active”.

For the compound “5c (DNA ATCGACTCTCGAGCGTTCTC; chemistry not fully specified) [Oligonucleotide 5c]”, the “IL-6” value with Murine IL-6 secretion (setting [5]) and with Murine IL-6 secretion (murine IL-6 secretion) was 1783.0 ± 189.5 pg/mL each time.

“5f (DNA ATCGACTCTCGAGCGTTCTC; Z-modified nucleotides, chemistry not fully specified) [Oligonucleotide 5f]”: the “IL-6” value with Murine IL-6 secretion (setting [5]) and in the series with Murine IL-6 secretion (murine IL-6 secretion) was not above 10 pg/mL throughout.

Regarding `C[Si](C)(C)C[C@@H](O)[C@@H]1CCCN1` [Compound 5a, (S)-2-(Trimethylsilyl)-1-((S)-1-pyrrolidin-2-yl)ethanol], the “IL-6” value in the series on Murine IL-6 secretion (setting [5]) and in the series on Murine IL-6 secretion (murine IL-6 secretion) was 1096.4 ± 372.0 pg/mL in each case.

As for “Mipomersen (DNA eG*e[5mC]*e[5mC]*eT*e[5mC]*dA*dG*dT*d[5mC]*dT*dG*d[5mC]*dT*dT*d[5mC]*eG*e[5mC]*eA*e[5mC]*e[5mC]) [Oligonucleotide 120, "Mipomersen, which is a stereorandom oligonucleotide mixture (Oligonucleotides 104, 105 ... compared to 120)", reference compound]”, the “Tm (° C.) ± 0.5” value in the series on complementary RNA stood at 65.3 °C. The IC50 in series [2] (setting [6]) came out at 4 nM; in series [2] (setting [7]) it was 4.39 nM.

For “1966 (DNA dT*dC*dG*dT*dC*dG*dC*dT*dG*dT*dC*dT*dC*dC*dG*dC*dT*dT*dC*dT*dT) [Oligonucleotide 1966]”, the “NK LU, expt. 1” value in the series on NK LU (setting [3]) and in the series on NK LU (setting [4]) was 2.62 LU in each case.

In the case of “1990 (DNA dT*dC*dC*dA*dT*dG*dC*dG*dT*dG*dC*dG*dT*dG*dC*dG*dT*dT*dT*dT) [Oligonucleotide 1990]”, the “NK LU, expt. 1” value in the series on NK LU (setting [3]) and with NK LU (setting [4]) was 2.10 LU each time.

With `CN1C(=O)[C@]23CC4=CC=C[C@H](O)[C@H]4N2C(=O)[C@@]1(CO)SS3` [Gliotoxin], the “TNF-α … (inhibitor alone)” value in series [1] is 17 pg/mL.

Take `CCN(CC)CCCC(C)Nc1ccnc2cc(Cl)ccc12` (stereo not shown) [Chloroquine, chloroquine, reference compound]: in series [1], the “TNF-α … (inhibitor alone)” value is 27 pg/mL and the “IL-12, activator: Medium (inhibitor alone)” value was 20 pg/mL.

Source of the values: US10590413B2, “Chiral control” (WAVE LIFE SCIENCES LTD., priority 2012, dated 2020).
